Consider five molecules from patent US20110015135A1, “Antitumoral Treatments” (Pharma Mar S.A., priority 2008, published 2011).

In assay [1] the test system is HOP62 cell line. In words: cells. The class given is cell-based, human. Here is the method: (§1) a. […] Experiments were performed in triplicate.
Assay [2] has as its system DV90 cell line. The assay can be described thus: cells. The class given is cell-based, human. Here is the method: as §1
Assay [3] concerns A549 cell line. The assay can be described thus: cells. The class given is cell-based, human. Particulars: 72 hours of drug exposure. On the procedure:
as §1

For assay [4], the system named is MCF7 cell line. In words: cells. On the procedure:
(§2) Experiments were performed in triplicate.
(§3) a. In the first set of assays, ICso values were determined for each drug after 72 hours of drug exposure in each of the tumor cell lines.

In assay [5] the test system is MDA-MB-231 cell line. The assay can be described thus: cells. On the procedure:
as §2, §3

Assay [6] deals with MDA-MB-435 cell line. The assay can be described thus: cells. On the procedure:
as §2, §3

Assay [7] deals with DLD1 cell line. The assay can be described thus: cells. Here is the method: as §2
Assay [8] relates to HT29 cell line. The assay can be described thus: cells. Here is the method: as §2
Assay [9] concerns non-small cell lung (A549). Particulars: reported in EP 610.078; cited from earlier work.
For assay [10], the system named is colon (HT-29). The settings on record: reported in EP 610.078; cited from earlier work.
Assay [11] concerns mouse leukemia (P388). The settings on record: reported in EP 610.078; cited from earlier work.
Where [12] appears, read: MCF7, 72 hours of drug exposure.
Setting [13] is: MDA-MB-231, 72 hours of drug exposure.
Setting [14] is: MDA-MB-435, 72 hours of drug exposure.
Setting [15] is: DLD1, 72 hours of drug exposure.
[16] abbreviates: HT29, 72 hours of drug exposure.

`N.N.[Cl][Pt][Cl]` [Cisplatin]: the IC50 (usually the point on the concentration scale where inhibition reaches its midpoint) was found to be 8250 nM in assay [1] (72 hours of drug exposure); 16500 nM in assay [2] (72 hours of drug exposure); 8250 nM in assay [3]; 16500 nM in assay [4] (setting [12]); 8250 nM in assay [5] (setting [13]); 2640 nM in [6] (setting [14]). Besides, the IC50 in [7] (setting [15]) is 24800 nM; in [8] (setting [16]), 6600 nM.
Regarding `Nc1ccn([C@@H]2O[C@H](CO)[C@@H](O)C2(F)F)c(=O)n1` [Gemcitabine], the IC50 in assay [1] (72 hours of drug exposure) worked out at 750 nM; in assay [2] (72 hours of drug exposure), 400 nM; in assay [3] it was 4 nM; in assay [4] (setting [12]), 900 nM; in assay [5] (setting [13]), 1000 nM; in assay [6] (setting [14]), 40 nM. In addition, the IC50 in assay [7] (setting [15]) came to 2000 nM; in [8] (setting [16]), 550 nM.
As to `C/C=C1\NC(=O)[C@H](Cc2ccccc2)NC(=O)[C@@H](C(C)C)NC(=O)[C@@H]([C@@H](C)CC)NC(=O)[C@H](NC(=O)[C@H](NC(=O)[C@H](CCCN)NC(=O)[C@H]2CCCN2C(=O)[C@H](NC(=O)[C@@H](NC(=O)[C@@H](NC(=O)[C@H](NC(=O)CC[C@@H](C)CC)C(C)C)[C@@H](C)O)C(C)C)C(C)C)[C@@H](C)CC)[C@@H](C)OC(=O)[C@H](C(C)C)NC1=O` [PM02734, (4S)-MeHex-D-Val-L-Thr-L-Val-D-Val-D-Pro-L-Orn-D-allo-Ile-cyclo(D-allo-Thr-D-allo-Ile-D-Val-L-Phe-Z-Dhb-L-Val)], the IC50 was 4000 nM in assay [1] (72 hours of drug exposure); 300 nM in assay [2] (72 hours of drug exposure); 200 nM in [3]; 600 nM in assay [4] (setting [12]); 6500 nM in assay [5] (setting [13]); 500 nM in [6] (setting [14]). For the same molecule, the IC50 in assay [7] (setting [15]) was found to be 350 nM; in assay [8] (setting [16]) it was 550 nM.
On to `CC(=O)O[C@H]1C(=O)[C@@]2(C)[C@H]([C@H](OC(=O)c3ccccc3)[C@]3(O)C[C@H](OC(=O)[C@H](O)[C@@H](NC(=O)c4ccccc4)c4ccccc4)C(C)=C1C3(C)C)[C@]1(OC(C)=O)CO[C@@H]1C[C@@H]2O` [Paclitaxel], for which the IC50 was determined as 40 nM in [1] (Homo sapiens, HOP-62, 72 hours of drug exposure); 30 nM in assay [2] (Homo sapiens, DV-90, 72 hours of drug exposure); 7 nM in assay [3] (Homo sapiens); 7.5 nM in assay [4] (Homo sapiens, MCF7, 72 h); 25 nM in assay [5] (Homo sapiens, MDA-MB-231, 72 h); 25 nM in assay [6] (Homo sapiens, MDA-MB-435, 72 h). The IC50 in assay [7] (Homo sapiens, DLD-1, 72 h) worked out at 40 nM; in assay [8] (Homo sapiens, HT-29, 72 h), 10 nM.
Kahalalide F: the “in vitro activity” value in [9], in assay [10] and in assay [11] was “micromolar activity” each time.
